Measurements from patent US4160829A, “Antibacterial 1,2,4-oxadiazolylacetamido cephalosporins” (Gist-Brocades N.V., priority 1972, dated 1979).
≈ marks a conversion by molar mass, not a printed value. Where two headings read alike, the source gives them in different places.

Tests used:
Bac.Subt.ATCC 6633 = test: agar serial dilution test; format: cell-based, Bacillus subtilis; conditions: agar serial dilution, 24 hours, 37° C.; for MIC: Bacillus subtilis, ATCC6633, 24 h, read-out: minimal inhibitory concentration (MIC)
Staph.aureus A 321 = test: agar serial dilution test; format: cell-based, Staphylococcus aureus; conditions: Staphylococcus aureus, A321, 24 h, agar serial dilution, 24 hours, 37° C.; read-out: minimal inhibitory concentration (MIC)
Staph.aureus A 2000 [1] = test: agar serial dilution test; format: cell-based, Staphylococcus aureus; conditions: Staphylococcus aureus, A2000, 24 h, agar serial dilution, 24 hours, 37° C.; read-out: minimal inhibitory concentration (MIC)
Staph.aureus A 2001 [2] = test: agar serial dilution test; format: cell-based, Staphylococcus aureus; conditions: Staphylococcus aureus, A2001, 24 h, agar serial dilution, 24 hours, 37° C.; read-out: minimal inhibitory concentration (MIC)
Strep. faec. L 80 = test: agar serial dilution test; format: cell-based, Streptococcus faecalis; conditions: Enterococcus faecalis; agar serial dilution, 24 hours, 37° C.; read-out: minimal inhibitory concentration (MIC)
Dipl.pneum. L 54 = test: agar serial dilution test; format: cell-based, Diplococcus pneumoniae; conditions: Streptococcus pneumoniae; agar serial dilution, 24 hours, 37° C.; read-out: minimal inhibitory concentration (MIC)
Past.multo. A 723 = test: agar serial dilution test; format: cell-based, Pasteurella multocida; conditions: Pasteurella multocida; agar serial dilution, 24 hours, 37° C.; read-out: minimal inhibitory concentration (MIC)
Kleb.pneum. A 809 = test: agar serial dilution test; format: cell-based, Klebsiella pneumoniae; conditions: Klebsiella pneumoniae; agar serial dilution, 24 hours, 37° C.; read-out: minimal inhibitory concentration (MIC)
Salm.dubl. P 43 = test: agar serial dilution test; format: cell-based, Salmonella dublin; conditions: Salmonella enterica, read-out: minimal inhibitory concentration (MIC)
Salm.typh. R 127 = test: agar serial dilution test; format: cell-based; conditions: 37° C.; for MIC: 24 h, read-out: minimal inhibitory concentration (MIC)
Esch.coli U 20 = test: agar serial dilution test; format: cell-based, Escherichia coli; conditions: Escherichia coli
Shig.equir. T 3 = test: agar serial dilution test; format: cell-based; conditions: 24 h, 37° C., read-out: minimal inhibitory concentration (MIC)
Pseud.aerug. H 10 = test: agar serial dilution test; format: cell-based; conditions: agar serial dilution, 24 hours, 37° C.; read-out: minimal inhibitory concentration (MIC)
Pseud.aerug. 2396 = test: agar serial dilution test; format: cell-based; conditions: agar serial dilution, 24 hours, 37° C.; read-out: minimal inhibitory concentration (MIC)
[3] = tested on: Pseud.aerug. Wyeth A 1058; test: agar serial dilution test; format: cell-based; conditions: agar serial dilution, 24 hours, 37° C.; read-out: minimal inhibitory concentration (MIC)
Prot.rettg. A 821 = test: agar serial dilution test; format: cell-based, Proteus rettgeri; conditions: Providencia rettgeri, 24 h, agar serial dilution, 24 hours, 37° C.; read-out: minimal inhibitory concentration (MIC)
Prot.mirab. H 3 = test: agar serial dilution test; format: cell-based, Proteus mirabilis; conditions: Proteus mirabilis; agar serial dilution, 24 hours, 37° C.; read-out: minimal inhibitory concentration (MIC)
Prot.mirab. L 93 = test: agar serial dilution test; format: cell-based, Proteus mirabilis; conditions: Proteus mirabilis
Prot.mirab. A 1200 = test: agar serial dilution test; format: cell-based, Proteus mirabilis; conditions: agar serial dilution, 24 hours, 37° C.; for MIC: Proteus mirabilis, 24 h, read-out: minimal inhibitory concentration (MIC)
Prot.morg. 2241 = test: agar serial dilution test; format: cell-based; conditions: 24 h, agar serial dilution, 24 hours, 37° C.; read-out: minimal inhibitory concentration (MIC)
Staph.aureus A 355 [4] = test: micro serial dilution test; format: cell-based, Staphylococcus aureus; conditions: Staphylococcus aureus, A355; micro serial dilution (in brackets), about 18 hours, 30° C. or 37° C.; penicillinase-producing strain; read-out: minimal inhibitory concentration (MIC)
Description: Two drops of a stock solution of the test compound (antibiotic) in a known concentration were brought into the first hole of a test plate with 9 numbered holes with a sterile Pasteur pipette. After rinsing this pipette three times with a physiological NaCl-solution, two drops of a stock solution of the test organism in a culture medium were brought in all the holes except for hole 8. In the first hole, the solution of the tested compound had been half diluted, then by stirring the liquid in the first hole and adding two drops of this mixture to the second hole and so on until hole 8, dilutions of the test compound solution were obtained in geometrical progression. The hole 9 contained no antibiotic and served for checking the growth of the testogranism in a blank medium. The test plate was incubated at 30° C. or 37° C. for about 18 hours.
^1 Penicillinase-producing strain

Staph.aureus A 2000 [5] = test: micro serial dilution test; format: cell-based, Staphylococcus aureus; conditions: Staphylococcus aureus, A2000, 18 h, micro serial dilution (in brackets), about 18 hours, 30° C. or 37° C.; read-out: minimal inhibitory concentration (MIC)
Staph.aureus A 2001 [6] = test: micro serial dilution test; format: cell-based, Staphylococcus aureus; conditions: Staphylococcus aureus, A2001, 18 h, micro serial dilution (in brackets), about 18 hours, 30° C. or 37° C.; read-out: minimal inhibitory concentration (MIC)
Haem.infl. A 1030 = test: micro serial dilution test; format: cell-based; conditions: micro serial dilution (in brackets), about 18 hours, 30° C. or 37° C.; for MIC: 18 h, read-out: minimal inhibitory concentration (MIC)
Staph.aureus A 355 [7] = test: agar serial dilution test; conditions: Staphylococcus aureus, A355, 24 h, read-out: minimal inhibitory concentration (MIC), agar serial dilution, 24 hours, 37° C.; penicillinase-producing strain
Strep.haem. A 266 = test: agar serial dilution test; format: cell-based, Streptococcus haemolyticus; conditions: Streptococcus; agar serial dilution, 24 hours, 37° C.; read-out: minimal inhibitory concentration (MIC)
[8] = agar serial dilution, 24 hours, 37° C.
[9] = U20, agar serial dilution, 24 hours, 37° C., read-out: minimal inhibitory concentration (MIC)
[10] = agar serial dilution, 24 hours, 37° C., read-out: minimal inhibitory concentration (MIC)

Row | Structure (SMILES) | MIC (Staph.aureus A 321) | MIC (Staph.aureus A 2000 [1]) | MIC (Staph.aureus A 2001 [2]) | MIC (Strep. faec. L 80) | MIC (Dipl.pneum. L 54) | MIC (Past.multo. A 723) | MIC (Kleb.pneum. A 809) | MIC (Salm.dubl. P 43; [8]) | MIC (Shig.equir. T 3) | MIC (Pseud.aerug. H 10) | MIC (Pseud.aerug. 2396) | MIC [3] | MIC (Prot.rettg. A 821) | MIC (Prot.mirab. H 3) | MIC (Prot.morg. 2241) | MIC (Staph.aureus A 355 [4]) | MIC (Staph.aureus A 2000 [5]) | MIC (Staph.aureus A 2001 [6]) | MIC (Staph.aureus A 355 [7]) | MIC (Bac.Subt.ATCC 6633) | also measured
1 | CC(=O)OCC1=C(C(=O)O)N2C(=O)[C@@H](NC(=O)Cc3nc(C)no3)[C@H]2SC1 [Compound D, sodium-7-[(3-methyl-1,2,4-oxadiazol-5-yl)-acetamido]-3-acetoxymethyl-3-cephem-4-carboxylate] | 0.5 µg/mL | 0.75 µg/mL | 0.75 µg/mL | 50 µg/mL | 0.75 µg/mL | 1.5 µg/mL | 3 µg/mL | 3 µg/mL | 6 µg/mL | > 100 µg/mL | > 100 µg/mL | > 100 µg/mL | 1.5 µg/mL | 25 µg/mL | > 100 µg/mL | 0.6 µg/mL | 1 µg/mL | 0.6 µg/mL | 0.5 µg/mL |  | minimal inhibitory concentration (MIC) (Bac.Subt.ATCC 6633): 0.12 µg/mL; minimal inhibitory concentration (MIC) (Salm.typh. R 127; 24 hours): 12.5 µg/mL; MIC (Esch.coli U 20; U20, 24 h, read-out: minimal inhibitory concentration (MIC), agar serial dilution, 24 hours, 37° C.): 12.5 µg/mL; MIC (Prot.mirab. L 93; 24 h, read-out: minimal inhibitory concentration (MIC), agar serial dilution, 24 hours, 37° C.): 12.5 µg/mL; minimal inhibitory concentration (MIC) (Prot.mirab. A 1200): 25 µg/mL; minimal inhibitory concentration (MIC) (Haem.infl. A 1030): 30 µg/mL
2 | Cc1noc(CC(=O)N[C@@H]2C(=O)N3[C@@H]2SC(C)(C)[C@@H]3C(=O)O)n1 [Example 11B, sodium 6-[(3-methyl-1,2,4-oxadiazol-5-yl)-acetamido]-penicillanate H2 O] | 0.12 µg/mL | 50 µg/mL | 3 µg/mL | 6 µg/mL | 0.25 µg/mL | 1 µg/mL | > 100 µg/mL |  | 3 µg/mL | > 100 µg/mL | > 100 µg/mL | > 100 µg/mL | 50 µg/mL | 50 µg/mL | > 100 µg/mL | > 12 µg/mL | > 12 µg/mL | 2.5 µg/mL | 50 µg/mL | 0.03 µg/mL | MIC (Strep.haem. A 266): 0.03 µg/mL; MIC (Salm.dubl. P 43; 24 h): 12.5 µg/mL; MIC (Salm.typh. R 127): 12.5 µg/mL; MIC (Esch.coli U 20; [9]): 50 µg/mL; MIC (Prot.mirab. L 93; [10]): 3 µg/mL; MIC (Prot.mirab. A 1200): > 100 µg/mL; MIC (Haem.infl. A 1030): 125 µg/mL
3 | COC(=O)C(C(=O)N[C@@H]1C(=O)N2C(C(=O)O)=C(COC(C)=O)CS[C@H]12)c1nc(C)no1 (stereo partly drawn) [Example 38, 7-[3-methyl-α-carbomethoxy-1,2,4-oxadiazol-5-yl-acetamido]cephalosporanic acid] | 25 µg/mL (≈ 55 µM) | 25 µg/mL (≈ 55 µM) | 25 µg/mL (≈ 55 µM) | > 100 µg/mL | 12.5 µg/mL (≈ 27.5 µM) | 12.5 µg/mL (≈ 27.5 µM) | 50 µg/mL (≈ 110 µM) | 100 µg/mL (≈ 220 µM) | 50 µg/mL (≈ 110 µM) | > 100 µg/mL | > 100 µg/mL | > 100 µg/mL | 25 µg/mL (≈ 55 µM) | 100 µg/mL (≈ 220 µM) | > 100 µg/mL | 23 µg/mL (≈ 50.6 µM) | 23 µg/mL (≈ 50.6 µM) | 15 µg/mL (≈ 33 µM) | 25 µg/mL (≈ 55 µM) | 6 µg/mL (≈ 13.2 µM) | MIC (Salm.typh. R 127): 100 µg/mL (≈ 220 µM); MIC (Esch.coli U 20; [9]): > 100 µg/mL; MIC (Prot.mirab. L 93; [10]): 50 µg/mL (≈ 110 µM); MIC (Prot.mirab. A 1200): > 100 µg/mL; MIC (Haem.infl. A 1030): 125 µg/mL (≈ 275 µM)
